According to the supplement of paper PMC10307832:

What was measured:
Assay in all cases: relative viability (nuclei count vs DMSO), 5 days (fraction); higher = more cells survive
[1] = compound: C1CC(C2=C(C1)C3=C(N2)C=CC(=C3)Cl)C(=O)N [Selisistat] + CCNC(=O)c1noc(-c2cc(C(C)C)c(O)cc2O)c1-c1ccc(CN2CCOCC2)cc1 [Luminespib] (partner 0.01 µM)
Method in brief: (§1)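 Five library-drug doses in √10 steps were combined with a fixed anchor-drug dose, or a single drug was given alone, by pin tool to lung cancer cell lines in 1536-well plates the day after seeding. Nuclei were stained and counted after 5 days. Relative viability is the nuclei count in treated wells over that in vehicle wells, taken as the median of duplicate plates.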

[2] = compound: C1CC(C2=C(C1)C3=C(N2)C=CC(=C3)Cl)C(=O)N [Selisistat] + O=C(c1cc(Cc2n[nH]c(=O)c3ccccc23)ccc1F)N1CCN(C(=O)C2CC2)CC1 [Olaparib] (partner 8 µM)
Method in brief: as §1

[3] = compound: c1ccc2c(CCNc3ccc(Nc4ccncc4)cc3)c[nH]c2c1 [Serdemetan] + CS(=O)(=O)N1CCN(Cc2cc3nc(-c4cccc5[nH]ncc45)nc(N4CCOCC4)c3s2)CC1 [Pictilisib] (partner 1 µM)
Method in brief: as §1

[4] = compound: c1ccc2c(CCNc3ccc(Nc4ccncc4)cc3)c[nH]c2c1 [Serdemetan] + NC(=O)Nc1cc(-c2cccc(F)c2)sc1C(=O)N[C@H]1CCCNC1 [AZD7762] (partner 0.2 µM)
Method in brief: as §1

Cell Line | relative viability ([1]; first compound 0.4 µM) | relative viability ([1]; first compound 1.265 µM) | relative viability ([1]; first compound 4 µM) | relative viability ([1]; first compound 12.65 µM) | relative viability ([1]; first compound 40 µM) | relative viability ([2]; first compound 0.4 µM) | relative viability ([2]; first compound 1.265 µM) | relative viability ([2]; first compound 4 µM) | relative viability ([2]; first compound 12.65 µM) | relative viability ([2]; first compound 40 µM) | relative viability ([3]; first compound 0.04 µM) | relative viability ([3]; first compound 0.1265 µM) | relative viability ([3]; first compound 0.4 µM) | relative viability ([3]; first compound 1.265 µM) | relative viability ([3]; first compound 4 µM) | relative viability ([4]; first compound 0.04 µM) | relative viability ([4]; first compound 0.1265 µM) | relative viability ([4]; first compound 0.4 µM) | relative viability ([4]; first compound 1.265 µM) | relative viability ([4]; first compound 4 µM)
NCI-H1975 | 0.147 | 0.301 | 0.168 | 0.131 | 0.337 | 0.765 | 0.728 | 0.776 | 0.653 | 0.605 | 0.302 | 0.355 | 0.317 | 0.338 | 0.31 | 0.635 | 0.769 | 0.717 | 0.769 | 0.72
CAL-12T | 0.546 | 0.326 | 0.275 | 0.784 | 0.401 | 0.765 | 0.675 | 0.689 | 0.782 | 0.769 |  | 0.521 |  | 0.369 | 0.368 | 0.557 | 0.609 | 0.555 | 0.547 | 0.599
NCI-H1623 | 0.701 | 0.504 | 0.315 | 0.644 | 0.503 |  |  |  |  |  |  |  |  |  |  |  |  |  |  | 
HCC-44 | 1.05 |  |  | 1.12 | 1.16 | 0.992 | 1.01 | 1.01 | 1.02 | 1.18 | 0.513 | 0.668 | 0.501 | 0.481 | 0.689 | 0.921 | 1.01 | 0.994 | 0.936 | 0.934
EKVX | 0.844 | 0.894 | 0.814 | 0.934 | 0.877 | 0.872 | 0.886 | 0.752 | 0.869 | 0.818 | 0.532 | 0.414 | 0.352 | 0.441 | 0.425 | 0.808 | 0.746 |  |  | 0.649
NCI-H1651 | 1.06 | 0.827 | 0.836 | 0.848 | 0.802 | 0.197 | 0.168 | 0.215 | 0.183 | 0.21 | 0.434 | 0.496 | 0.433 | 0.456 | 0.23 | 0.375 | 0.286 | 0.363 | 0.248 | 0.213
NCI-H1944 | 0.743 | 0.58 |  | 0.653 | 0.615 | 0.431 | 0.381 | 0.335 | 0.357 | 0.413 | 0.354 | 0.383 | 0.34 |  | 0.338 | 0.43 | 0.647 | 0.626 | 0.291 | 0.281
NCI-H1703 |  |  |  |  |  | 0.416 | 0.425 | 0.362 | 0.42 | 0.433 | 0.213 | 0.278 | 0.3 | 0.271 | 0.232 | 0.176 | 0.121 | 0.121 |  | 0.108
Calu-6 |  |  |  |  |  | 0.561 | 0.572 | 0.634 | 0.552 | 0.617 | 0.912 | 0.888 | 0.888 | 0.647 | 0.621 |  |  |  |  | 
EBC-1 |  |  |  |  |  | 0.763 | 0.732 | 0.711 | 0.728 | 0.66 | 0.35 | 0.449 | 0.451 | 0.411 | 0.368 |  |  |  |  | 
SW 1573 | 0.154 | 0.135 | 0.222 | 0.206 | 0.228 | 0.4 | 0.462 | 0.505 | 0.639 | 0.505 | 0.533 | 0.545 | 0.494 | 0.182 | 0.177 |  |  |  |  | 
A-427 | 0.882 | 0.729 | 0.881 | 0.977 | 0.949 | 0.853 | 0.779 |  | 0.829 | 0.692 | 0.787 | 0.704 | 0.607 | 0.49 | 0.599 | 0.759 | 0.671 | 0.664 | 0.538 | 0.495
NCI-H2347 | 0.322 | 0.406 | 0.186 | 0.283 | 1.01 | 0.719 | 0.622 |  | 0.605 | 0.621 | 0.718 | 0.517 | 0.71 | 0.69 | 0.464 | 0.673 | 0.686 | 0.668 | 0.462 | 0.406
NCI-H1355 | 0.739 | 0.834 | 0.596 | 0.683 | 0.774 | 0.796 | 0.775 | 0.664 | 0.735 | 0.813 | 0.456 | 0.491 | 0.405 | 0.445 | 0.435 | 0.631 | 0.512 | 0.623 | 0.469 | 0.484
NCI-H358 | 0.435 | 0.341 |  | 0.469 | 0.471 | 0.724 | 0.593 | 0.696 | 0.553 | 0.662 | 0.364 | 0.368 | 0.332 | 0.281 | 0.317 | 0.525 | 0.5 | 0.455 | 0.335 | 0.381
PC-3 [JPC-3] | 0.784 | 0.68 | 0.6 | 0.687 | 0.657 | 1.13 | 1.1 |  | 1.02 | 1.07 | 0.748 | 0.693 |  | 0.705 | 0.735 | 0.823 | 0.759 | 0.802 | 0.591 | 0.71
NCI-H2228 | 0.153 | 0.101 | 0.152 | 0.145 | 0.13 | 0.637 | 0.656 | 0.523 | 0.741 | 0.702 | 0.322 | 0.26 | 0.327 | 0.257 | 0.214 |  |  |  |  | 
HOP-62 | 0.951 | 0.967 | 0.886 | 0.88 | 1.01 | 0.394 | 0.422 | 0.419 | 0.432 | 0.73 | 0.821 | 0.798 | 0.782 | 0.604 | 0.657 | 0.762 | 0.544 | 0.731 | 0.519 | 0.49
HARA | 0.909 | 1.02 | 0.846 | 0.584 | 1.04 | 0.695 | 0.651 |  | 0.785 | 0.85 | 0.385 | 0.411 | 0.408 |  | 0.347 | 0.298 | 0.196 | 0.266 | 0.23 | 0.304
